The values that follow come from US8344140B2, “18F-labelled folates” (Merck Eprova AG, priority 2007, dated 2013).

A short description of data set [1]: in vitro plasma stability study, human plasma. Type of data set: in vitro ADME. The note with it: 37° C. The procedure:
(§1) The ^18F-click folate was employed in in vitro plasma stability studies and in metabolite studies using liver microsomes.
(§2) ^18F-click folate was incubated with both human and murine plasma at 37° C. in a shaking water bath. Aliquots were taken at different time points and analysed by HPLC.

Data set [2] is described as follows: in vitro plasma stability study, murine plasma. The format is in vitro ADME. The settings on record: 37° C. Here is the method:
as §1, §2

Data set [3] can be described thus: metabolite study using human liver microsomes. Type of data set: in vitro ADME. The note with it: 37° C., aliquots at 0, 5, 15 and 30 min. Here is the method: as §1
(§3) Metabolites studies using human and murine liver microsomes were carried out at 37° C. over a time span of 0-30 min. Aliquots were taken at 0, 5, 15 and 30 min.

A short description of data set [4]: metabolite study using murine liver microsomes. Type of data set: in vitro ADME. The settings on record: 37° C., aliquots at 0, 5, 15 and 30 min. The procedure:
as §1, §3

Data set [5] has as its system folate receptor-positive KB tumors. The data set can be described thus: ex vivo biodistribution in nude mice bearing KB xenografts tumors. The note with it: ~2 MBq injected, 45 min post injection. The procedure: ^18F-click folate was applied in ex vivo biodistribution studies using eight nude mice bearing KB xenografts tumors. ˜2 MBq of the radiotracer were injected into each animal. In a blockade group (4 animals) […] natural folic acid was injected 10 min prior to the radiotracer. The animals were scarified 45 min post injection. […] Furthermore a specific uptake with 78% specific blockade was also found in the kidneys, which are known to express the folate receptor.

The test system is the same in data set [6]. The data set can be described thus: in vivo PET imaging in nude mice bearing KB xenografts tumors. The note with it: ~11 MBq injected; PET scans 15 min to 45 min post injection. The procedure:
In vivo PET imaging using the ^18F-click folate was performed in nude mice bearing KB xenografts tumors. ˜11 MBq of the radiotracer were injected into each animal. In the blockade group 200 μg natural folic acid was injected 10 min prior to the radiotracer. The PET scans were acquired from 15 min to 45 min post injection.
The KB tumors could be imaged by PET using ^18F-click folate.
PET imaging using [^18F]FDG was performed with the same animals four days after the ^18F-click folate studies. ˜9 MBq of [^18F]FDG were injected into each animal. The PET scans were acquired from 30 min to 60 min post injection. […] Although [^18F]FDG is the most commonly used radiotracer in PET tumor imaging, it is known that [^18F]FDG is not suitable for the imaging of KB xenografts tumors (Bettio et al, J. Nucl. Med. […]; 47: 1153-60).
FIG. 4 show the PET images using ^18F-click folate (left hand side) in comparison to PET images using [^18F]FDG (right hand side), the arrows indicate the position of the KB xenografts tumors.

As to `Nc1nc2ncc(CNc3ccc(C(=O)NC(CCC(=O)NCCCCn4cc(CCCC[18F])nn4)C(=O)O)cc3)nc2c(=O)[nH]1` (centres unmarked) [^18F-click folate, γ-(4-(4-(4-[^18F]fluorobutyl)-1,2,3-triazol-1-yl)butyl) folic acid amide], the stability in plasma result is “high stability” in data set [1] (HPLC analysis, 0-120 min) and “high stability” in data set [2] (HPLC analysis, 0-120 min). The “defluorination or other radioactive degradation products in plasma” value in data set [1] (over a period of 0-120 min) and in data set [2] (over a period of 0-120 min) was “No defluorination or other radioactive degradation products were detected” in each case. The “radioactive metabolites or degradation in liver microsomes” value in data set [3] and in data set [4] was “no radioactive metabolites or degradation” throughout. In addition, the “specific blockade of radiotracer uptake in KB tumors” value in data set [5] (KB tumors, natural folic acid 10 min prior in blockade group) came out at 94%. Further, the “specific blockade of radiotracer uptake in kidneys” value in data set [5] (kidneys, natural folic acid 10 min prior in blockade group) was 78%. Besides, the “unspecific uptake in gallbladder, intestine and feces” value in data set [5] (points to hepatobiliary elimination) is “High unspecific uptake”. Further, in data set [6], the “accumulation of radioactivity in the abdominal region (gallbladder, intestines)” value is given as “high accumulation”. In data set [6], the tumor-to-background ratio result is listed as “low”.
